From ChEMBL document CHEMBL3739386, “Synthesis and biological evaluation of picolinamides and thiazole-2-carboxamides as mGluR5 (metabotropic glutamate receptor 5) antagonists” (Bioorg Med Chem Lett, 2016) come the findings set out here.

Data set [1] concerns the target T1, Metabotropic glutamate receptor 5 (Homo sapiens, UniProt P41594). Description: Antagonist activity at mGlu5 receptor (unknown origin) expressed in HEK cells assessed as inhibition of glutamate-induced calcium flux at 1 uM by fluorescence based assay. In kind it is functional, cell-based. As to conditions: HEK293.
Target sequence in this assay (P41594 21-1212 limits assumed): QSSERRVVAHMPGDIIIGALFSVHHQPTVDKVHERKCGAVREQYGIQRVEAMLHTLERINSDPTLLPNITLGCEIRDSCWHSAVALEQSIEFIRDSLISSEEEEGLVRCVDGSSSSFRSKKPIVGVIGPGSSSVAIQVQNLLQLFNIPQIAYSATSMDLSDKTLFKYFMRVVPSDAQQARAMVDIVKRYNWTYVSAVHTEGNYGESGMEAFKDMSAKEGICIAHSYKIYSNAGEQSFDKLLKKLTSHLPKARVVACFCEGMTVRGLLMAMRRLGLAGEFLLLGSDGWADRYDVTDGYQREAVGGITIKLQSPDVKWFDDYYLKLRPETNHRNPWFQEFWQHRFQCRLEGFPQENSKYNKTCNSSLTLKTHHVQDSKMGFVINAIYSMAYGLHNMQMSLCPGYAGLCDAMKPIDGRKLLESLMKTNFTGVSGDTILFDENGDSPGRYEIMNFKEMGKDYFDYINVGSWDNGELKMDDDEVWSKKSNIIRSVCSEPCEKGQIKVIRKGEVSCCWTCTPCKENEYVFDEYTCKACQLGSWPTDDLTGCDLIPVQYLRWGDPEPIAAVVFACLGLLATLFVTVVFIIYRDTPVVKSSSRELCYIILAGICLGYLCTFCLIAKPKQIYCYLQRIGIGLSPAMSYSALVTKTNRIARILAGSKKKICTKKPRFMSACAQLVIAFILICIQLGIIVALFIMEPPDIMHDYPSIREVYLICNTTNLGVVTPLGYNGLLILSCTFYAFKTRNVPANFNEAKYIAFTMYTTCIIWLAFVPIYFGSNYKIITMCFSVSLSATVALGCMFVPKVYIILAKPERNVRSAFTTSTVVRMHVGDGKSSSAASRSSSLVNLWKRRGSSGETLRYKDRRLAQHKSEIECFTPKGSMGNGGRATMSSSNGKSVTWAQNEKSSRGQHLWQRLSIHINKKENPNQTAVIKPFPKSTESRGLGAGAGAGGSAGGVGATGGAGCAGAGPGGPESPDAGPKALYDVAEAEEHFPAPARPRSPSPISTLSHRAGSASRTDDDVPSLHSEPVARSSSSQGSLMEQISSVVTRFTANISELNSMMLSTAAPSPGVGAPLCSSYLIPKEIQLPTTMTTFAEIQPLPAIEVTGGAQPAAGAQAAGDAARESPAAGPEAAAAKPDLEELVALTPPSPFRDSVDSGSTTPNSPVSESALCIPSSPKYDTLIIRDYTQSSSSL
Data set [2] addresses T1, Metabotropic glutamate receptor 5. Put plainly: Antagonist activity at mGlu5 receptor (unknown origin) expressed in HEK cells assessed as inhibition of glutamate-induced calcium flux at 10 uM by fluorescence based assay. In kind it is functional, cell-based. To be noted: HEK293.
Target sequence in this assay (P41594 21-1212 limits assumed): as above
Data set [3] deals with T2, hERG (KCNH2) (Homo sapiens, UniProt Q12809). Description: Inhibition of human ERG at 10 uM by patch-clamp method.
T2 sequence (Q12809 whole entry): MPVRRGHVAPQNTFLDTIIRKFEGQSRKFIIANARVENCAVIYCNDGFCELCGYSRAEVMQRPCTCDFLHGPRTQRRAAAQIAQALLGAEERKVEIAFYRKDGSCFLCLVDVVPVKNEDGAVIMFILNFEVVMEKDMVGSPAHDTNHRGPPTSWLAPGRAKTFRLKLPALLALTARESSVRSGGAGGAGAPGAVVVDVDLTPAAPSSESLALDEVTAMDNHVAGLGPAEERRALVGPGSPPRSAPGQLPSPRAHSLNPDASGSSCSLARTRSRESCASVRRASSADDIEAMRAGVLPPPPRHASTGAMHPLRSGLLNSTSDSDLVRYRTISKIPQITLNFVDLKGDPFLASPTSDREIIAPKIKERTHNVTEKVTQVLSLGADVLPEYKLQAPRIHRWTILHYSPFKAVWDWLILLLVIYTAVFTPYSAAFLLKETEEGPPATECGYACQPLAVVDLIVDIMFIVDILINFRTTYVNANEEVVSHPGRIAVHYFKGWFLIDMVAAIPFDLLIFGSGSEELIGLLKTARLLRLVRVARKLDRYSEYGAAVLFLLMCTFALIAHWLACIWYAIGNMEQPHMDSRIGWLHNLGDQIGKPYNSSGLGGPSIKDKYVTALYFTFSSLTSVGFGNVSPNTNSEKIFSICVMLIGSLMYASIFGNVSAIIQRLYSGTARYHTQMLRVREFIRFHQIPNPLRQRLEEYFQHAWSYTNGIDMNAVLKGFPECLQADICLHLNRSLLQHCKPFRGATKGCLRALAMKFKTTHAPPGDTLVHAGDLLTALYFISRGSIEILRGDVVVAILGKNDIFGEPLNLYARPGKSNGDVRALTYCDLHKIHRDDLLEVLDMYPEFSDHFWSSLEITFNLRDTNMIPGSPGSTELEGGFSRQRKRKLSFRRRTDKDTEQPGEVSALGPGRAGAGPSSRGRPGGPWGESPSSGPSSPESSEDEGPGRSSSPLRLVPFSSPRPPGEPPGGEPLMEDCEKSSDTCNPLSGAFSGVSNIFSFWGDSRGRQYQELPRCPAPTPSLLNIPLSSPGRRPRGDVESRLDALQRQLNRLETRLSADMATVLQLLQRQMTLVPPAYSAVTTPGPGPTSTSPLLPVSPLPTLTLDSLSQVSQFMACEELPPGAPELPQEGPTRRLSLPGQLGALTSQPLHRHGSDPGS
A further data set addresses CYP2C19 (Homo sapiens, UniProt P33261). Description: Inhibition of human CYP2C19 assessed as remaining activity at 10 uM. In kind it is ADME. To be noted: read-out: Activity.
For data set [4], the target named is T2, hERG (KCNH2). Description: Inhibition of human ERG at 0.1 uM by patch-clamp method.
A further data set addresses CYP3A4 (Homo sapiens, UniProt P08684). Put plainly: Inhibition of human CYP3A4 assessed as remaining activity at 10 uM. In kind it is ADME. As to conditions: read-out: Activity.
Data set [5] addresses T1, Metabotropic glutamate receptor 5. Put plainly: Antagonist activity at mGlu5 receptor (unknown origin) expressed in HEK cells assessed as inhibition of glutamate-induced calcium flux by fluorescence based assay. In kind it is functional, cell-based, HEK293.
Target sequence in this assay (P41594 whole entry): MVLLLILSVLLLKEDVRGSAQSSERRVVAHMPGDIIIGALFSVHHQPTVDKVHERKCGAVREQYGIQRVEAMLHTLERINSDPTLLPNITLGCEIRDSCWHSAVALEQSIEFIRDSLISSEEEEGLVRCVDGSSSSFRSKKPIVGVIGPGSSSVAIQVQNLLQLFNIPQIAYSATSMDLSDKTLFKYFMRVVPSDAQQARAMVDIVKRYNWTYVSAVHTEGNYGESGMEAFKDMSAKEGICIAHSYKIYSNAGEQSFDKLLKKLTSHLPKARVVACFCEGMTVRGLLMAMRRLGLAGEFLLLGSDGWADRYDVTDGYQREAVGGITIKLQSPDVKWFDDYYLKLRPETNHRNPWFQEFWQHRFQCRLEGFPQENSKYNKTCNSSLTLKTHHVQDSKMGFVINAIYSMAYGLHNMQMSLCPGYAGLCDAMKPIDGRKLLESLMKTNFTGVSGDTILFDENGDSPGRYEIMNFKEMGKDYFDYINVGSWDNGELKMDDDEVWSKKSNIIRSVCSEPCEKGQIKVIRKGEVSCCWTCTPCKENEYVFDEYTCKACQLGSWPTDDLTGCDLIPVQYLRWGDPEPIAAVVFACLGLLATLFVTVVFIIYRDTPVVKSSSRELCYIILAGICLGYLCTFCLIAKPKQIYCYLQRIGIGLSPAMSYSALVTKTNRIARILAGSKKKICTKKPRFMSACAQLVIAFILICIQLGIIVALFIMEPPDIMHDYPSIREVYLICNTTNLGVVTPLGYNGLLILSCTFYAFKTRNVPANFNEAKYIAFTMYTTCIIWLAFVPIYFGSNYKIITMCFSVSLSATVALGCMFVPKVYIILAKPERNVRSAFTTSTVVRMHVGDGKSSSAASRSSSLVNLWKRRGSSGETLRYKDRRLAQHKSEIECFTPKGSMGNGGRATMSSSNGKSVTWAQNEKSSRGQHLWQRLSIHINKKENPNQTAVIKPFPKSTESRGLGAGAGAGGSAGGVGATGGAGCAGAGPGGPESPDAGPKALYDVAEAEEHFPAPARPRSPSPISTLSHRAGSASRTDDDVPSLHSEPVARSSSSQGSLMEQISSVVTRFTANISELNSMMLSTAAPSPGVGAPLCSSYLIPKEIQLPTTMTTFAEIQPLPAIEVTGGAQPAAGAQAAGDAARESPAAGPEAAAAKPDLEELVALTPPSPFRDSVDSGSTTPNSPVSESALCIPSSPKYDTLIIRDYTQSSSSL
For a further data set, the target named is CYP2C9 (Homo sapiens, UniProt P11712). Description: Inhibition of human CYP2C9 assessed as remaining activity at 10 uM. In kind it is ADME. To be noted: read-out: Activity.
Chain of CYP2C9 (P11712 whole entry): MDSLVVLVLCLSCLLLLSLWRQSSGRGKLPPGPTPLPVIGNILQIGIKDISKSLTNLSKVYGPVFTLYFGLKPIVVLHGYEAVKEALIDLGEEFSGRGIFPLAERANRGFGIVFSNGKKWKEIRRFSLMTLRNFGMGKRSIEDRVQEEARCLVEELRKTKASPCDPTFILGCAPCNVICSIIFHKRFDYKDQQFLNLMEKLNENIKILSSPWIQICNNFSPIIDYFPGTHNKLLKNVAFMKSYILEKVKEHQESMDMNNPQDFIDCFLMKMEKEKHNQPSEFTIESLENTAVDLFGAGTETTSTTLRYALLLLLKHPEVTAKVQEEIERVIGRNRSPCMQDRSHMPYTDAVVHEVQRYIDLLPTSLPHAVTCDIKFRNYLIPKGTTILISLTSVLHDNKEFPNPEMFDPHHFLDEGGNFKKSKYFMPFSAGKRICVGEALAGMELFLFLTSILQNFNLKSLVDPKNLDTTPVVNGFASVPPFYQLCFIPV
Data set [6] is described as follows: Metabolic stability in human liver microsomes assessed as compound remaining at 1 uM after 30 mins. In kind it is ADME. As to conditions: read-out: Stability.
In another data set the target is T3, CYP1A2 (Homo sapiens, UniProt P05177).
T3 sequence (P05177 whole entry): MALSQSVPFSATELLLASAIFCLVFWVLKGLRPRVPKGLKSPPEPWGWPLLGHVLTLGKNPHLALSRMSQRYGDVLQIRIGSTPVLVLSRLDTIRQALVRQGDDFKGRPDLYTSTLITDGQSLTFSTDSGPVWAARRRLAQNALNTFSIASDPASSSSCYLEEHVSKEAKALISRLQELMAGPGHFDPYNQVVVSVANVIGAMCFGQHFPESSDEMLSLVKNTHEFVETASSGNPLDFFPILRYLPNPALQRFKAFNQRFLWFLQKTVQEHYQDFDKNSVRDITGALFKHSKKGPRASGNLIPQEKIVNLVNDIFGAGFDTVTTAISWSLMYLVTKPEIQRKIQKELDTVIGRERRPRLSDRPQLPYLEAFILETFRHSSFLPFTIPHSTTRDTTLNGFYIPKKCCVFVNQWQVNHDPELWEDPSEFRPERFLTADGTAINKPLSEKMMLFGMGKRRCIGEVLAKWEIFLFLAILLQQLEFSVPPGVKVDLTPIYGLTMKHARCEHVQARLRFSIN
Description: Inhibition of human CYP1A2 assessed as remaining activity at 10 uM. As to conditions: read-out: Activity. In kind it is ADME.

In data set [7] the target is T2, hERG (KCNH2). Description: Inhibition of human ERG at 1 uM by patch-clamp method.
For another data set, the target named is CYP2D6 (Homo sapiens, UniProt P10635). Put plainly: Inhibition of human CYP2D6 assessed as remaining activity at 10 uM. In kind it is ADME. As to conditions: read-out: Activity.

Chain of CYP2C19 (P33261 whole entry): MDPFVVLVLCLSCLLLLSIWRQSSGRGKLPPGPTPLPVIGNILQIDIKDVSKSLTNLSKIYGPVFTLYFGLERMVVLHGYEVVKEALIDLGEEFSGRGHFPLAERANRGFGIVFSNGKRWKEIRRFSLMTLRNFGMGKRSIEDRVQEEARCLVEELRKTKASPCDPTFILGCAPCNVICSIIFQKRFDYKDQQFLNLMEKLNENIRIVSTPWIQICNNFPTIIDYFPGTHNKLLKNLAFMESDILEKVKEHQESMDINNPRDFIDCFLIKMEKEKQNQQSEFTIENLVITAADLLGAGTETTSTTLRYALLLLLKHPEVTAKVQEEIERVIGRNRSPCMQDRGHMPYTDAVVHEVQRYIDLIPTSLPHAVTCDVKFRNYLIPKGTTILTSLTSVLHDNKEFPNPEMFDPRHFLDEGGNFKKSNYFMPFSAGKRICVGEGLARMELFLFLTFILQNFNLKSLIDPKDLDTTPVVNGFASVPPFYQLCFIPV
Chain of CYP3A4 (P08684 whole entry): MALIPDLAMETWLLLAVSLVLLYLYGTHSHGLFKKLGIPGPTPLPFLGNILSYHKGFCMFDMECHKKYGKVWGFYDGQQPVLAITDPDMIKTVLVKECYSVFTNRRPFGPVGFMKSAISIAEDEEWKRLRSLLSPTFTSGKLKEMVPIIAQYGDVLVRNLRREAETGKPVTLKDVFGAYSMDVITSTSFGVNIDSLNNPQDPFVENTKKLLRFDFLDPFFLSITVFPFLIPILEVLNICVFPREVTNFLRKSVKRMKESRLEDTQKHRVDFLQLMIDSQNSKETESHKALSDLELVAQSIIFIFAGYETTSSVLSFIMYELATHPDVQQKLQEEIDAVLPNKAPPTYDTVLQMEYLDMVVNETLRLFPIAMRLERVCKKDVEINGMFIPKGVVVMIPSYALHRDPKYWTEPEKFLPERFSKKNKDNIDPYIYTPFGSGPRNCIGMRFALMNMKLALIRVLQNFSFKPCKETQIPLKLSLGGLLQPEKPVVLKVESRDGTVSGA

In the case of `Cc1cccc(NC(=O)c2nc(C)cs2)c1`, in [1], the inhibition came out at 11.6%.

Regarding `O=C(Nc1cccc(Cl)c1)c1cccc(F)n1`, the inhibition came to 33.4% in data set [2] and 13.1% in [1].

For `Cc1cccc(NC(=O)c2nc(Br)cs2)n1`, the inhibition at 10 µM against hERG (KCNH2) [3] came out at 34.8%. In addition, the activity at 10 µM on CYP2C19 was 7.4%; on CYP3A4, 87.3%; on CYP2C9, 88.2%; on CYP1A2, 11%; at CYP2D6, 99.2%. In data set [1], the inhibition was found to be 81%. Also, the inhibition at 0.1 µM on hERG (KCNH2) [4] was found to be 15%. Moreover, the IC50 in data set [5] was found to be 159 nM. Moreover, the remaining at 0.5 h, 1 µM in [6] was found to be 7.25%. Besides, the inhibition at 1 µM on hERG (KCNH2) [7] was 19.4%.

In the case of `N#Cc1csc(C(=O)Nc2cccc(F)n2)n1`, the inhibition in [1] is -0.4%. For the compound `COc1ccc(NC(=O)c2cccc(Cl)n2)cn1`, the inhibition was 43.4% in [2] and 18.5% in data set [1]. Regarding `Cc1csc(C(=O)Nc2ccccn2)n1`, the inhibition in data set [1] amounted to 47.1%. In the case of `O=C(Nc1cccc(Cl)c1)c1nc(Br)cs1`, in data set [1], the inhibition was 58.1%. On to `Cc1cccc(NC(=O)c2nc(C#N)cs2)n1`, for which, in [1], the inhibition was found to be 24.7%. Still for that read-out and setting: to `N#Cc1csc(C(=O)Nc2cccc(Br)c2)n1` belongs 19.5%; to `Cc1csc(C(=O)Nc2cccc(Br)c2)n1`, 18%.

Take `Cc1cccc(C(=O)Nc2cccc(C#N)c2)n1`: the inhibition in [2] worked out at 68.1%; in data set [1] it was 18.4%. Regarding `N#Cc1cccc(NC(=O)c2nc(C#N)cs2)n1`, the inhibition in data set [1] came to 8.3%. Consider `COc1cccc(C(=O)Nc2cccnc2)n1`, for which the inhibition in data set [2] was 23.1%; in data set [1], 22.8%. Take `Cc1cccc(NC(=O)c2nc(C)cs2)n1`: the inhibition in data set [1] came out at 50.1%.

With `N#Cc1cccc(NC(=O)c2nc(Br)cs2)c1`, in [1], the inhibition is -0.1%. Same read-out and setting: to `O=C(Nc1cccc(F)c1)c1nc(Br)cs1` belongs 13.7%. For `N#Cc1cccc(NC(=O)c2cccc(F)n2)c1`, the inhibition in [2] was determined as 34%; in data set [1], 3.2%.

Consider `O=C(Nc1cccc(Br)n1)c1nc(Br)cs1`, for which the inhibition in data set [1] stood at 19.8%.

Take `O=C(Nc1ccc(Cl)cn1)c1ccccn1`: the figures for the inhibition in data set [2] and in data set [1] were 30.7% and 16.2%, respectively.

On to `O=C(Nc1ccccn1)c1ccccn1`, for which the values for the inhibition in data set [2] and in data set [1] were 65.5% and 34.5%, respectively.

Consider `Cc1cccc(C(=O)Nc2cccc(Cl)c2)n1`, for which the results for the inhibition in [2] and in data set [1] were 52.1% and 10.5%, respectively. The like results for `O=C(Nc1cccnc1)c1cccc(Cl)n1` were, in that order, 33.4% and 19.1%. In the case of `Cc1cccc(NC(=O)c2nc(Br)cs2)c1`, in data set [1], the inhibition was determined as 40.9%. The same measure, in the same setting: the value for `N#Cc1csc(C(=O)Nc2cccc(Cl)c2)n1` was -7.3%.

As for `O=C(Nc1ccc(Cl)nc1Cl)c1ccccn1`, the inhibition in data set [2] is 35.4%; in [1] it was 3.85%.

With `O=C(Nc1cc(Cl)cnc1Cl)c1ccccn1`, the figures for the inhibition in data set [2] and in data set [1] were 51% and 13.8%, respectively. `Cc1ccnc(Cl)c1NC(=O)c1ccccn1`: the values for the inhibition in data set [2] and in [1] were 17.7% and 16.1%, respectively. Consider `O=C(Nc1cccc(Cl)n1)c1nc(Br)cs1`, for which the inhibition in data set [1] turned out to be 60%. With `O=C(Nc1cccc(Br)c1)c1nc(Br)cs1`, at hERG (KCNH2) [3], the inhibition at 10 µM is 39.6%. In addition, the activity at 10 µM at CYP2C19 turned out to be 86.3%; on CYP3A4 it was 84.9%; on CYP2C9 it was 99%; on CYP1A2, 38.3%; at CYP2D6, 102%. The inhibition in data set [1] was found to be 71.1%. Also, the inhibition at 0.1 µM against hERG (KCNH2) [4] came to 16.3%. In addition, in data set [5], the IC50 amounted to 274 nM. In addition, in [6], the remaining at 0.5 h, 1 µM worked out at 37.3%. The inhibition at 1 µM at hERG (KCNH2) [7] is 29.3%.

As for `Cc1ccnc(Cl)c1NC(=O)c1cccc(Cl)n1`, the inhibition in [2] was determined as 18.6%; in data set [1] it was 15.7%.

For the compound `Cc1csc(C(=O)Nc2cccc(Cl)n2)n1`, the inhibition in data set [1] is 45%. The same measure, in the same setting: to `N#Cc1csc(C(=O)Nc2cccc(Cl)n2)n1` belongs -9.4%. Still for that read-out and setting: the value for `Cc1csc(C(=O)Nc2cccc(C#N)c2)n1` was 16.6%. Consider `O=C(Nc1cccnc1)c1ccccn1`, for which the figures for the inhibition in [2] and in data set [1] were 30.3% and 25.6%, respectively. Take `O=C(Nc1cccc(F)n1)c1nc(Br)cs1`: the inhibition in data set [1] came out at 27.6%. Consider `Cc1csc(C(=O)Nc2cccc(Cl)c2)n1`, for which the inhibition in data set [1] was found to be 32.2%. For `COc1ccc(NC(=O)c2ccccn2)cn1`, the inhibition is 25.5% in data set [2] and 14% in data set [1]. Regarding `Cc1csc(C(=O)Nc2cccc(F)c2)n1`, the inhibition in data set [1] was determined as 3.1%.

Take `N#Cc1cccc(NC(=O)c2nc(Br)cs2)n1`: the inhibition in [1] came to 9.6%.
